Series [1] has as its target Polymerase acidic protein (Influenza A virus (A/Puerto Rico/8/1934(H1N1)), UniProt P03433). The experiment in a line: Inhibition of Influenza A/Perto Rico/8/34 (PR8) (H1N1) PA N-terminal domain (1 to 197) endonuclease activity expressed in Escherichia coli Rosetta (DE3) using (6-FAM)-AAT CGC AGG CAG CAC TC-(BHQ-1) as substrate measured every 50 secs for 30 mins by FRET assay.

The subject of series [2] is unidentified influenza virus. Nature of the series: Antiviral activity against Influenza virus infected in MDCK cells assessed as viral RNA content incubated with cells for 30 mins prior to addition of 30 mins preincubated virus-compound mixture for 1 hr followed by 3 times compound washout and again cultured in compound containing virus growth medium for 24 hrs by RT-PCR analysis. Type of series: functional, organism-based.

Series [3] in a line: Cytotoxicity against MDCK cells after 24 hrs by CellTiter 96 AQueous one solution cell proliferation assay. Type of series: cell-based, Canis lupus familiaris. Particulars: dog.
The target of series [4] is Polymerase acidic protein (Influenza A virus (A/Puerto Rico/8/1934(H1N1))) (UniProt P03433). The experiment in a line: Inhibition of Influenza A/Perto Rico/8/34 (PR8) (H1N1) PAN (1 to 197) endonuclease activity expressed in Escherichia coli Rosetta (DE3) using M13mp18 as substrate at 100 uM after 60 mins by agarose gel elctrophoresis.
Series [5] has as its target Polymerase acidic protein (Influenza A virus (A/Puerto Rico/8/1934(H1N1)), UniProt P03433). Nature of the series: Inhibition of Influenza A/Puerto Rico/8/34 (H1N1) PA N-terminal domain endonuclease activity expressed in Escherichia coli BL21 (RIL) cells using (6-FAM)TGGCAATATCAGCTCCACA(MGBNFQ) as substrate by fluorescence assay.
Series [6] relates to Influenza A virus. The experiment in a line: Antiviral activity against Influenza A virus (A/Puerto Rico/8/1934(H1N1)) infected in MDCK cells after 24 hrs by immunofocus assay. Type of series: functional, organism-based.
Series [7] relates to Influenza A virus. The experiment in a line: Antiviral activity against Influenza A virus (A/PR8/34(H1N1)) infected in MDCK cells assessed as inhibition of viral replication after 24 hrs. The conditions noted are these: A/Puerto Rico/8/1934(H1N1). Type of series: functional, organism-based.

Calls of active or inactive are those of the source. The calls are words filed in the database; no cut-off is given here.

In turn, `O=Cc1cc(Cc2ccccc2Cl)cc([N+](=O)[O-])c1O` gave an IC50 in series [1] of 63 µM. Besides, in series [2], the EC50 is 11.5 µM. This molecule showed a CC50 at 24 h in series [3] of 74.1 µM. Further, the inhibition result in series [4] is “Active”.
For `O=C(COc1ccc(F)cc1)c1ccc(O)c(O)c1O`, the IC50 in series [1] was 9.7 µM. In addition, the EC50 in series [2] worked out at 11.8 µM. This molecule also returned a CC50 at 24 h in series [3] above 200 µM. Moreover, in series [4], the inhibition entry was “Active”.
In turn, `O=c1[nH]c(-c2ccc(F)cc2)c(-c2ccc(-c3nnn[nH]3)cc2)cc1O` registered an IC50 in series [5] of 0.011 µM. This molecule also gave an EC50 in the series with Influenza A virus [6] of 11 µM.
Take `O=C(O)/C(O)=C/C(=O)C1(Cc2ccc(Cl)cc2)CCN(Cc2ccccc2)CC1`: in the series on Influenza A virus [7], the IC50 was found to be 0.35 µM.
`Oc1ccc(/C=N/Nc2ccc(Cl)cc2)c(O)c1O` displayed a half-inhibitory concentration (IC50) in series [1] of 8.3 µM. Further, in series [2], the EC50 amounted to 14.4 µM. For the same molecule, in series [3], the CC50 at 24 h is above 200 µM. The inhibition entry in series [4] was “Active”.

The IC50 is the point on the concentration scale where inhibition reaches its midpoint. As usually defined, the EC50 is the concentration that produces a half-maximal response. Broadly, the CC50 is the concentration that lowers cell viability or growth by half. A low value points to greater toxicity to the cells.

These data come from ChEMBL document CHEMBL3600365, “Structural and computational study on inhibitory compounds for endonuclease activity of influenza virus polymerase” (Bioorg Med Chem, 2015).
